Reference: US11752111B2, “Use of cannabidivarin in the treatment of autism spectrum disorder, associated disorders and schizophrenia” (GW Research Limited, priority 2016, dated 2023)

Key:
VPA-exposed rats = assay: Short-term memory, novel object recognition test, prenatal VPA model; format: in vivo, rat
Experimental: Pregnant Sprague-Dawley rats (Charles River, Calco, Italy), received a single intraperitoneal injection of 500 mg/kg sodium valproate on the 12.5 day after conception, and control females were injected with physiological saline at the same time. Sodium valproate (Sigma Aldrich, Milan, IT) was dissolved in saline at a concentration of 250 mg/ml.
CBDV was dissolved in ethanol, cremophor and saline (1:1:18). Symptomatic treatment with CBDV at doses of 0.2, 2, 20, and 100 mg/kg/day i.p. was performed starting from PND 34 (early adolescence) till 56 (early adulthood), both in male and female offspring of dams injected with VPA 500 mg/kg (or vehicle) on day 12.5 after conception. […]
Short-term memory: The experimental apparatus used for the object recognition test was an open-field box (43×43×32 cm) made of Plexiglas, placed in a dimly illuminated room. The experiment was performed and analysed as previously described (Zamberletti et al, 2014). […]
Each animal was placed in the arena and allowed to explore two identical previously unseen objects for 5 minutes (familiarization phase). […] During the test phase the time spent exploring the familiar object (Ef) and the new object (En) was videotaped and recorded separately by two observers blind to the treatment groups and the discrimination index was calculated as follows: [(En−Ef)/(En+Ef)]×100.

Ube3am-/p+ (AS) mice = assay: Rotarod test in Angelman syndrome model; format: in vivo, mouse; conditions: CBDV 20 mg/kg i.p. chronic treatment (30 days); AS mice vs AS vehicle
Experimental: Heterozygous mice with maternal deficiency of Ube3A (Ube3am−/p+) and wild type (Ube3am+/p+) were purchased from The Jackson Laboratory (Jackson code: B6.129S7-Ube3a tm1Alb/J) and maintained in a C57BL/6 background.
Drugs were dissolved in 1:1:18 ethanol:cremophor:0.9% saline, for intraperitoneal (i.p.) administration. Drug treatment was performed daily for 35 days. CBDV was administered at 20 mg/kg.
Rotarod: The rotarod test assesses balance and motor coordination of mice. Mice have been measured for the time (in seconds) of equilibrium before falling on a rotary cylinder by a magnet that, activated from the fall of the mouse on the plate, allows to record the time of permanence on the cylinder. […] The animals were analysed by 2 separate tests at 1-h interval in the same day.

PCP-treated rats [1] = assay: Novel object recognition test, sub-chronic PCP model of schizophrenia; format: in vivo, rat
Experimental: (§1) Female hooded-Lister rats were used for this experiment. Rats were housed in groups of 5 under standard laboratory conditions under a 12 hr light: dark cycle, lights on at 0700 hr. Testing was carried out in the light phase.
(§2) Rats were randomly assigned to two treatment groups and treated with vehicle, n=20 (distilled water, i.p.) or Phencyclidine hydrochloride (PCP), n=100 (2 mg/kg, i.p. twice daily for 7-days). PCP was dissolved in distilled water. This was followed by a 7-day wash out period before the rats were tested following acute treatment with CBDV, risperidone or vehicle.
(§3) Risperidone (0.1 mg/kg) was dissolved in a minimum volume of acetic acid, made up to volume with distilled water and pH adjusted to 6 with 0.1M NaOH and administered via the i.p. route in a volume of 1 ml/kg, 60 min prior to testing.
(§4) CBDV at 2, 10 or 20 mg/kg was dissolved in 2:1:17 (Ethanol:Cremofor:Saline 0.9%) and administered via the i.p. route in a volume of 5 ml/kg, 60 min prior to testing.
Rats were allowed to habituate to the empty test box and the behavioural test room environment for 1h on day 1. Prior to behavioural testing on day 2 rats are given a further 3 min habituation.
Following the 3 min habituation period, the rats are given two 3 min trials (T1 and T2) which are separated by a 1 min inter-trial interval in the home cage during which the objects are changed. Behaviour in all trials was recorded on video for subsequent blind scoring.
In this trial, the animals are allowed to explore two identical objects (A1 and A2) for 3 min.
In this trial, the animals explore a familiar object (A) from T1 and a novel object (B) for 3 min. The familiar object presented during T2 is a duplicate of the object presented in T1 in order to avoid any olfactory trails.
The object exploration is defined by animals licking, sniffing or touching the object with the forepaws whilst sniffing, but not leaning against, turning around, standing or sitting on the object. The exploration time (s) of each object (A, B, familiar and novel) in each trial are recorded using two stopwatches and the following factors are calculated:
Discrimination index (DI), which is calculated as shown below: […]

PCP-treated rats [2] = assay: Social interaction test, sub-chronic PCP model of schizophrenia; format: in vivo, rat
Experimental: as §1, §2, §3, §4
The social interaction test is performed in an open-field comprising a square box made of Plexiglas (52×52×31 cm) placed 27 cm above the floor on a moveable trolley. The floor of the box is white with black gridlines forming 9 identical squares on it. All other walls are black. A video camera connected to a video recorder and monitor is positioned above the box. The object used for the test consists of a heavy structure made of metal that cannot be displaced by the animals.
The rats were habituated to the test environment and arena prior to the test day. Habituation consists of placing all rats from one cage together in the empty test arena for one hour for three days including the day before the test day.
Pairs of rats, weight matched (15-20 g) and unfamiliar to each other, receiving either no treatment (n=70 “conspecific” rats) or different treatments (PCP and Vehicle; n=10 “tested” rats or PCP+Drug; n=50 “tested” rats) were placed in the test arena together for 10 min and behaviour assessed as described below.
An inanimate object such as an unopened drinks can is also placed in the centre of the arena to measure any differences in interaction of the test animal with an unfamiliar animal as opposed to an unfamiliar object. After each 10 minute trial, the object and arena are cleaned with 10% alcohol in an attempt to remove traces of any olfactory cues. All testing is carried out under standard room illumination levels (70 cd/m2).
Behaviour in both trials was recorded on video for subsequent blind scoring. A behavioural scoring software program (Hindsight, Scientific programming services) is used to score the following parameters: • Investigative sniffing behaviour: sniffing the conspecific's snout or parts of the body including the anogenital region; • Following: rat moves after the conspecific i.e. a vehicle treated rat of the same species, around the arena; • Avoidances: actively turning away when approached by the conspecific animal; • Investigation of object: exploration of object placed in centre of the arena; and • Locomotor activity is recorded by counting the total number of sectors (i.e. lines) crossed by the test rat. Results

C=C(C)[C@@H]1CCC(C)=C[C@H]1c1c(O)cc(CCC)cc1O [CBDV, Cannabidivarin]
short-term memory deficit, discrimination index (FIG. 2C) (VPA-exposed rats; 2, 20 and 100 mg/kg, male and female VPA rats): completely and significantly reversed | recognition memory per se (VPA-exposed rats; vehicle-treated (non VPA) rats): without affecting per se recognition memory | latency to fall, rotarod (FIG. 12) (Ube3am-/p+ (AS) mice): reduced latency to fall | discrimination index (DI) (FIG. 17) (PCP-treated rats [1]; 10 and 20 mg/kg, PCP rats): statistically significant increase in the DI | time spent investigating two identical objects in Trial 1 (FIG. 16A) (PCP-treated rats [1]; CBDV 2, 10 or 20 mg/kg i.p. 60 min prior to testing): no real preference | discrimination between familiar and novel objects, Trial 2 (FIG. 16B) (PCP-treated rats [1]; CBDV 10 and 20 mg/kg i.p., PCP treated rats): reverse the cognitive dysfunction | time spent avoiding the other rat (FIG. 18C) (PCP-treated rats [2]; CBDV 20 mg/kg): reduce the amount of time | time spent following the other rat (FIG. 18B) (PCP-treated rats [2]; CBDV 20 mg/kg): increased the amount of time | time spent sniffing the other rat (FIG. 18A) (PCP-treated rats [2]; CBDV 10 and 20 mg/kg): significantly increased | PCP effects on social interaction (sniffing, following, avoiding) (FIG. 18) (PCP-treated rats [2]; CBDV acute i.p.): reverse these effects in a statistically significant manner
